Assay results as given in US20060159666A1, “Method of potentiating inflammatory and immune modulation for cell and drug therapy” (priority 2004, published 2006).

How the values were obtained:
HUCBCs [1] = assay: 96-Chemotx migration assay of HUCBCs to recombinant chemoattractants; format: cell-based, human; conditions: MCP-1 5-30 ng/mL, IL-3 1-10 ng/mL, TPO 10-40 ng/mL; 4 hr; ATP luminescence
Protocol: HUCBCs were prepared as described above and cultured for 24 hr before use. The 96-Chemotx chambers (NeuroProbe, Gaithersburg, Md.) were used for the migration assays. The chamber is a 96-well plate consisting of bottom wells to hold the unknowns or chemoattractant and a top plate, which is a polycarbonate membrane with 5 μm pore size. […] All were pipetted (300 μL) directly into the bottom wells, in triplicate, after which the top plate was securely attached. The HUCBCs were pipetted directly into each top well at a concentration of 62,000 cells per 25 μL. The migration chambers were then placed in a cell culture incubator at 37° C. with 5% CO2 for 4 hr. The top plates were removed and the bottom plates were then centrifuged (300 rpm for 10 min) to force cells to the bottom. Half the medium (150 μL) was then removed and a cell viability assay (CellTiter-Glo Kit, Promega), which is based on the ability of live cells to incorporate adenosine triphosphate (ATP), was used to determine the numbers of cells that had migrated. The migration plate was read in an automated plate reader (BioTek) set to the appropriate luminescence.

HUCBCs [2] = assay: 96-Chemotx migration assay of HUCBCs to MCAO brain tissue extracts; format: cell-based, human; conditions: positive control; 4 hours
Excerpt: In determining the time course of HUCBC migration into brain after a stroke, an ex vivo experimental approach was employed. Male Sprague Dawley rats under a permanent middle cerebral artery occlusion (MCAO); a nylon filament was threaded through the internal carotid artery to the origin of the MCA and permanently ligated in place. At 4, 6, 12, 24, 48, 72 hrs and 1 week after ischemia the animals were euthanized and the brains removed within two min, immediately flash-frozen and then stored at −80° C. until needed. The frozen brains were semi-thawed and kept cold. The striatum, hippocampus, and the cortex were dissected from the sides both ipsilateral and contralateral to the occlusion. The same dissections were performed for sham surgery and normal rats. Tissue from each of the conditions were pooled, and kept on ice in clear Dulbecco's modified Eagle's medium (DMEM, Invitrogen, Carlsbad, Calif.). […]
The cryopreserved HUCBCs were thawed and transferred into clear DMEM with 5% FBS and 1 μL/1 mL of Gentamicin (Sigma, St. Louis). […] Cord blood cells were then plated in low adherence 6 well culture dishes (Corning, Corning, N.Y.) for 24 hrs in a water jacket incubator set at 37° C. and with 5% CO2 After 24 hrs cells were lifted by gentle pipetting, placed in a 15 mL tube, centrifuged, resuspended in 1 mL of media without FBS, and viability assessed using the trypan blue dye exclusion method. […]

HUCBCs [3] = assay: Human cytokine antibody array of HUCBC conditioned medium; format: cell-based; conditions: Ex Vivo 10 medium; IL-3 5 ng/mL or TPO 25 ng/mL for 5 d; 42-cytokine array
Protocol: The mononuclear fraction of the HUCBCs was obtained from Saneron CCEL Therapeutics, Inc. (Oldsmar, Fla.). Frozen samples were thawed in 10 mL of DMEM (Gibco), supplemented with 5% fetal bone serum (FBS, Gibco) and gentamicin (50 μg/mL, Sigma), or with Ex Vivo 10 media with gentamicin (50 μg/mL, Sigma). After centrifugation for 10 min at 200 rpm, the supernatant was removed and the cells were resuspended in 1 mL of the same medium. The viability of all samples ranged from 73% to 95% as determined by the ability to exclude trypan blue dye. Cells were then cultured for 3 to 14 d for cytokine arrays and ELISA assays; cells cultured in Ex Vivo 10 media were further stimulated with IL-3, TPO or both.
In order to address this, we used human cytokine arrays to establish whether the HUCBCs secreted these proteins. To determine the cytokines that HUCBCs released during culture, we used a TranSignal human cytokine antibody array (Panomics, Inc., Redwood City, Calif.), which simultaneously profiles either 23 (Array 1.0) or 42 (Array 3.0) cytokines/assay at the protein level. First, we examined whether cytokine production increased as a function of seeding density. The HUCBC were cultured at concentrations of 5, 10, or 30×10^6 per 5 mL of serum free DMEM with Gentamicin (50 μg/mL) for 3 d. […]

Substance	HUCBC migration to chemoattractant compared to controls (DMEM and PBS) (HUCBCs [1])	HUCBC migration to SDF-1 chemoattractant compared to all other conditions (HUCBCs [2])	cytokine release from HUCBCs after stimulation (HUCBCs [3])
MCP-1: human recombinant MCP-1 used as chemoattractant	Significantly more HUCBCs migrated	–	–
SDF-1: Stromal derived factor 1, chemoattractant used as positive control	–	Significantly more HUCBCs	–
TPO: thrombopoietin, factor known to stimulate hematopoietic cells	Significantly more HUCBCs migrated	–	a somewhat different profile of protein release
